Data published in patent publication US20050255537A1, “Method for monitoring treatment with a parathyroid hormone” (priority 1999, published 2005).

Test system: BSAP and PICP serum levels, NTX urine levels
Test: Example 3 clinical trial of rhPTH(1-34) vs alendronate: bone markers
Format: in vivo, human
Settings: alendronate 10 mg per day
Experimental: • Number of Subjects: • rhPTH(1-34): 73 enrolled, 51 finished. • Alendronate (Fosamax®): 73 enrolled, 57 finished. • Diagnosis and Inclusion Criteria: Women aged 65±8 years, postmenopausal for 19±19 years, selected for a baseline spine bone mineral density of 0.8±0.1 and a T value of −2.2. Dosage and Administration: • Test Product (blinded) • rhPTH(1-34): 40 μg/day, given subcutaneously • Reference (Control) Therapy (blinded) • Alendronate (Fosamax®): 10 mg per patient per day • Duration of Treatment: • rhPTH(1-34): 12-18 months, with follow up from time of withdrawal of drug to 18 months of study. • Alendronate: 12-18 months, with follow up from time of withdrawal of drug to 18 months of study. • Criteria for Evaluation: Spine x-ray, serum biological markers (calcium, bone-specific alkaline phosphatase, procollagen I carboxy-terminal propeptide); urine makers (calcium, N-telopeptide, fir deoxypyridinoline); 1,25-dihydroxyvitamin D; bone mineral density spine, hip, wrist, and total body.
Measures of BSAP, PICP, and NTX levels were determined for each patient through the course of therapy generally according to methods described above in Example 1.

SMILES: NCCCC(O)(P(=O)(O)O)P(=O)(O)O [alendronate, reference compound]
- PICP serum level (FIG. 8): a decrease in PICP was observed
- NTX urine levels (FIG. 9): generally declined slightly during the first 6 months of the study and then remained diminished for the duration of the study
- BSAP serum level (after about 4 months, FIG. 7): A decrease in BSAP level was observed
